This note sets out measurements from patent publication EP0806422A2, “Anti-cataract agent” (Senju Pharmaceutical Co., Ltd., priority 1996, dated 1997).

One may read the inhibition as the relative decrease from the control value, in per cent.

In one test the test system is Diabetic Rats. Put plainly: Cataract formation in streptozotocin-induced diabetic rats, lens changes evaluated by slit lamp. Type of test: in vivo, Sprague Dawley rats. Particulars: 0.06% drug in rat chow; for cataract formation: Figure 1, result of Test Example 2; for cataract formation / onset and severity of sugar cataract formation / progress of lens changes to the vacuole stage: diabetic rats; for Lens changes were observed at: days after injection of streptozotocin, untreated diabetic lens changes began at 21 days; for onset and severity of sugar cataract formation: compared with control chow; for progress of lens changes to the vacuole stage: in untreated diabetic rats vacuoles clearly visible by 35 days. Here is the method: Diabetes was induced in 40 young (60-80 g) Sprague Dawley rats by tail vein injection of 75 mg/kg streptozotocin in Tris-HCl and divided into 3 groups. After 4 days all rats were tested with glucostrips (tail blood), and those with blood sugar levels less than 250 mg % were reinjected with 70 mg/kg streptozotocin dissolved in Tris-HCl.
Drug administration was carried out by adding 0.06% drug to rat chow. The rat chow with added drug was formed by mixing appropriate amounts of each drug with powdered rat chow and then cold pressing the mixture into different size pellets for identification. The rat chow was commercially prepared by BioServe (Frenchtown, N.J.). Subsequently, each compound was dissolved in 500 ml of Tris buffer and mixed with 5 kg of standard rat chow pellets until all liquid was absorbed into the pellets and the wet pellets were dried for 24 hours at 60°C. Rat chow not containing drug was fed to a control group of rats.
Lens changes were evaluated by portable slit lamp at approximately 3-6 day intervals in the diabetic rats. Lens changes were evaluated on a scale at 0 to 3 as follows: 0 clear lens; 1 vacuoles present; 2 cortical opacities; 3 hypermature cataract. The severity of lens changes within the vacuole and cortical stage was further subjectively defined as follows: 1.2 peripheral equatorial vacuoles; 1.4 obvious formation 50% of the lens; 1.6 obvious vacuole formation 50% of lens; 1.8 total lens covered by vacuoles; 2.2 start of cortical changes with posterior capsule still visible by slit lamp; 2.4 advanced cortical opacities covering most of lens; cortical opacity expanded to whole lens; 2.8 total lens is white in appearance.

Test [1] has as its target T1, rat lens aldose reductase (Rattus norvegicus, UniProt P07943).
T1 construct: made in house; host or cells: Escherichia coli
Put plainly: Enzyme assay: inhibition of aldose reductase, monitored spectrophotometrically as decrease in NADPH absorbance at 340 nm. Type of test: biochemical. The conditions noted are these: 1x10^-4 M concentration; purified recombinant rat aldose reductase, in vitro; read-out: inhibition rate of aldose reductase. Here is the method:
The activity of purified recombinant rat aldose reductase (Old SE, Sato S, Kador PF. and Carper DA.: In vitro expression of rat lens aldose reductase in Escherichia coli., Proc. Nat. Acad. Sci. USA, 87:4942-4945, 1990) was assayed by spectrophotometrically monitoring decrease in absorbance of NADPH (reduced nicotinamide adenine dinucleotide phosphate) at 340 nm (Kador PF., Goosey JD., Sharpless NE., Kolish J, and Miller DD.: Stereoscopic inhibition of aldose reductase, European J., Med. Chem. 16: 293-298, 1981).
One enzyme unit was defined as amount of enzyme consuming one micromole of NADPH under the assay conditions.
With reference to 1-N,N-dimethylsulfamoyl-4-(2-pyrimidinyl)piperazine (SRA-1; product of Example 3) and 4-((4-dimethylsulfamoyl)piperazino)-2,6-dimethoxypyrimidine (SRA-2; product of Example 1), their in vitro ability to inhibit rat lens aldose reductase were determined.

Molecules are shown by their SMILES.

As for `CN(C)S(=O)(=O)N1CCN(c2ncccn2)CC1` [SRA-1, 1-N,N-dimethylsulfamoyl-4-(2-pyrimidinyl)piperazine], in the test on Diabetic Rats, the cataract formation entry is “inhibited”; the “Lens changes were observed at” value was 39 days; the “onset and severity of sugar cataract formation” value is on record as “delayed”; the “progress of lens changes to the vacuole stage” value was “did not progress to the vacuole stage”. Besides, the inhibition at 100 µM in test [1] is 5%.
Consider `COc1cc(N2CCN(S(=O)(=O)N(C)C)CC2)nc(OC)n1` [SRA-2, 4-((4-dimethylsulfamoyl)piperazino)-2,6-dimethoxypyrimidine], for which, in the test on Diabetic Rats, the cataract formation entry is listed as “inhibited”; the “Lens changes were observed at” value is 45 days; the “onset and severity of sugar cataract formation” value is “delayed”; the “progress of lens changes to the vacuole stage” value is listed as “did not progress to the vacuole stage”. In addition, the inhibition at 100 µM in test [1] came to 13%.
